In patent US20230295087A1, “AGONISTS OF ROR GAMMAt” (BRISTOL-MYERS SQUIBB COMPANY, priority 2019, published 2023):
pEC50: −log10 of the molar value.

Target: T1, human RORgT (Homo sapiens, UniProt P51449)
T1 construct: expressed in transfected cells
T1 sequence (P51449 267-516): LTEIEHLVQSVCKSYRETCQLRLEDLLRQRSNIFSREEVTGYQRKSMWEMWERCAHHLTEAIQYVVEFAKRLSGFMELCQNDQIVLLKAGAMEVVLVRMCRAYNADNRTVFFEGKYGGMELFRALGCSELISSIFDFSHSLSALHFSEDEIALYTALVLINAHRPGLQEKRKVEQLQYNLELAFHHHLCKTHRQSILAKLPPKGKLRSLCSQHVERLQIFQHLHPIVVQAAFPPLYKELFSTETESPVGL
Assay: RORgT Gal4 Luciferase Reporter Gene Assay
Type: cell-based
Conditions: engineered Jurkat cells overexpressing RORgT (LBD or full length) fused with Gal4 Luc reporter; 18 hours at 37° C.; luminescence
Summary of the method: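 Jurkat cells expressing Gal4 Luc with either RORgT LBD (aa267-516) or full-length human RORgT, 10,000 cells/well, treated with compound (40 µM to 0.67 nM final, 3-fold dilutions) for 18 h at 37° C. Steady-Glo luminescence read; inhibition of constitutive activity as % signal-window reduction relative to a control compound.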

Compound	pEC50
O=C(NC1CCOCC1)N1CC[C@@]2(S(=O)(=O)c3ccccc3)c3ccc(OCc4c(Cl)cccc4Cl)cc3CC[C@@H]12 [Example 89, (3aR,9bR)-9b-(benzenesulfonyl)-7-[(2,6-dichlorophenyl)methoxy]-N-(oxan-4-yl)-1H,2H,3H,3aH,4H,5H,9bH-benzo[e]indole-3-carboxamide]	6.94
CS(=O)(=O)N[C@@H]1CCCN(C(=O)N2CC[C@@]3(S(=O)(=O)c4ccccc4)c4ccc(OCc5c(Cl)cccc5Cl)cc4CC[C@@H]23)C1 [Example 90, N-[(3R)-1-[(3aR,9bR)-9b-(benzenesulfonyl)-7-[(2,6-dichlorophenyl)methoxy]-1H,2H,3H,3aH,4H,5H,9bH-benzo[e]indole-3-carbonyl]piperidin-3-yl]methanesulfonamide]	6.15
CC(=O)N1CCN(C(=O)N2CC[C@@]3(S(=O)(=O)c4ccccc4)c4ccc(OCc5c(Cl)cccc5Cl)cc4CC[C@@H]23)CC1 [Example 94, 1-{4-[(3aR,9bR)-9b-(benzenesulfonyl)-7-[(2,6-dichlorophenyl)methoxy]-1H,2H,3H,3aH,4H,5H,9bH-benzo[e]indole-3-carbonyl]piperazin-1-yl}ethan-1-one]	7.82
O=C(NC1CCS(=O)(=O)C1)N1CC[C@@]2(S(=O)(=O)c3ccccc3)c3ccc(OCc4c(Cl)cccc4Cl)cc3CC[C@@H]12 (stereo partly drawn) [Example 101, (3aR,9bR)-9b-(benzenesulfonyl)-7-[(2,6-dichlorophenyl)methoxy]-N-(1,1-dioxo-1λ^6-thiolan-3-yl)-1H,2H,3H,3aH,4H,5H,9bH-benzo[e]indole-3-carboxamide]	7.21
CS(=O)(=O)N1CCC(CCC(=O)N2CC[C@@]3(S(=O)(=O)c4ccccc4)c4ccc(OCc5c(Cl)cccc5Cl)cc4CC[C@@H]23)CC1 [Example 103, 1-[(3aR,9bR)-9b-(benzenesulfonyl)-7-[(2,6-dichlorophenyl)methoxy]-1H,2H,3H,3aH,4H,5H,9bH-benzo[e]indol-3-yl]-3-(1-methanesulfonylpiperidin-4-yl)propan-1-one]	6.59
O=C(N1CC[C@@]2(S(=O)(=O)c3ccc(F)cc3)c3ccc(OCc4ccc(F)cc4Cl)cc3CC[C@@H]12)C1(O)CCS(=O)(=O)CC1 [Example 104, 4-[(3aR,9bR)-7-[(2-chloro-4-fluorophenyl)methoxy]-9b-(4-fluorobenzenesulfonyl)-1H,2H,3H,3aH,4H,5H,9bH-benzo[e]indole-3-carbonyl]-4-hydroxy-1λ^6-thiane-1,1-dione]	8.25
O=C(N1CC[C@@]2(S(=O)(=O)c3ccccc3)c3ccc(OCc4c(Cl)cccc4Cl)cc3CC[C@@H]12)C1(O)CCS(=O)(=O)CC1 [Example 105, 4-[(3aR,9bR)-9b-(benzenesulfonyl)-7-[(2,6-dichlorophenyl)methoxy]-1H,2H,3H,3aH,4H,5H,9bH-benzo[e]indole-3-carbonyl]-4-hydroxy-1λ^6-thiane-1,1-dione]	8.10
NC(=O)[C@H]1CC[C@H](C(=O)N2CC[C@@]3(S(=O)(=O)c4ccccc4)c4ccc(OCc5c(Cl)cccc5Cl)cc4CC[C@@H]23)CC1 [Example 106, (1r,4r)-4-[(3aR,9bR)-9b-(benzenesulfonyl)-7-[(2,6-dichlorophenyl)methoxy]-1H,2H,3H,3aH,4H,5H,9bH-benzo[e]indole-3-carbonyl]cyclohexane-1-carboxamide]	8.55
CC(=O)N[C@H]1CC[C@H](C(=O)N2CC[C@@]3(S(=O)(=O)c4ccc(F)cc4)c4ccc(OCc5c(F)cccc5C(F)(F)F)cc4CC[C@@H]23)CC1 [Example 108, N-[(1r,4r)-4-[(3aR,9bR)-7-{[2-fluoro-6-(trifluoromethyl)phenyl]methoxy} -9b-(4-fluorobenzenesulfonyl)-1H,2H,3H,3aH,4H,5H,9bH-benzo[e]indole-3-carbonyl]cyclohexyl]acetamide]	6.88
O=C(O)[C@H]1CC[C@H](C(=O)N2CC[C@@]3(S(=O)(=O)c4ccc(Cl)cc4)c4ccc(OCc5c(F)cccc5C(F)(F)F)cc4CC[C@@H]23)CC1 [Example 111, (1r,4r)-4-[(3aR,9bR)-9b-(4-chlorobenzenesulfonyl)-7-{[2-fluoro-6-(trifluoromethyl)phenyl]methoxy} -1H,2H,3H,3aH,4H,5H,9bH-benzo[e]indole-3-carbonyl]cyclohexane-1-carboxylic acid]	8.57
O=C(O)[C@H]1CC[C@](O)(C(=O)N2CC[C@@]3(S(=O)(=O)c4ccc(F)cc4)c4ccc(OCc5cc(Cl)ccc5Cl)cc4CC[C@@H]23)CC1 [Example 112, (1 s,4 s)-4-[(3aR,9bR)-7-[(2,5-dichlorophenyl)methoxy]-9b-(4-fluorobenzenesulfonyl)-1H,2H,3H,3aH,4H,5H,9bH-benzo[e]indole-3-carbonyl] -4-hydroxycyclohexane-1-carboxylic acid]	8.44
C[C@]1(C(=O)N2CC[C@@]3(S(=O)(=O)c4ccc(F)cc4)c4ccc(OCc5cc(Cl)ccc5Cl)cc4CC[C@@H]23)CC[C@H](C(=O)O)CC1 [Example 113, (1r,4r)-4-[(3aR,9bR)-7-[(2,5-dichlorophenyl)methoxy]-9b-(4-fluorobenzenesulfonyl)-1H,2H,3H,3aH,4H,5H,9bH-benzo[e]indole-3-carbonyl]-4-methylcyclohexane-1-carboxylic acid]	8.51
O=C(O)[C@H]1CC[C@H](C(=O)N2CC[C@@]3(S(=O)(=O)c4ccc(F)cc4)c4ccc(OCc5ccncc5Cl)cc4CC[C@@H]23)CC1 [Example 114, (1r,4r)-4-[(3aR,9bR)-7-[(3-chloropyridin-4-yl)methoxy]-9b-(4-fluorobenzenesulfonyl)-1H,2H,3H,3aH,4H,5H,9bH-benzo[e]indole-3-carbonyl]cyclohexane-1-carboxylic acid]	7.28

Second part, the compound after the results:

pEC50	Compound
6.98	CC(C)(O)CNC(=O)N1CC[C@@]2(S(=O)(=O)c3ccccc3)c3ccc(OCc4c(Cl)cccc4Cl)cc3CC[C@@H]12 [Example 91, (3aR,9bR)-9b-(benzenesulfonyl)-7-[(2,6-dichlorophenyl)methoxy]-N-(2-hydroxy-2-methylpropyl)-1H,2H,3H,3aH,4H,5H,9bH-benzo[e]indole-3-carboxamide]
6.71	CS(=O)(=O)CCNC(=O)N1CC[C@@]2(S(=O)(=O)c3ccccc3)c3ccc(OCc4c(Cl)cccc4Cl)cc3CC[C@@H]12 [Example 92, (3aR,9bR)-9b-(benzenesulfonyl)-7-[(2,6-dichlorophenyl)methoxy]-N-(2-methanesulfonylethyl)-1H,2H,3H,3aH,4H,5H,9bH-benzo[e]indole-3-carboxamide]
6.54	CS(=O)(=O)C1CCN(C(=O)N2CC[C@@]3(S(=O)(=O)c4ccccc4)c4ccc(OCc5c(Cl)cccc5Cl)cc4CC[C@@H]23)C1 (stereo partly drawn) [Example 93, 1-[(3aR,9bR)-9b-(benzenesulfonyl)-7-[(2,6-dichlorophenyl)methoxy]-1H,2H,3H,3aH,4H,5H,9bH-benzo[e]indole-3-carbonyl]-3-methanesulfonylpyrrolidine]
6.71	O=C(Nc1ccnnc1)N1CC[C@@]2(S(=O)(=O)c3ccccc3)c3ccc(OCc4c(Cl)cccc4Cl)cc3CC[C@@H]12 [Example 95, (3aR,9bR)-9b-(benzenesulfonyl)-7-[(2,6-dichlorophenyl)methoxy]-N-(pyridazin-4-yl)-1H,2H,3H,3aH,4H,5H,9bH-benzo[e]indole-3-carboxamide]
7.89	O=C(N1CC[C@@]2(S(=O)(=O)c3ccccc3)c3ccc(OCc4c(Cl)cccc4Cl)cc3CC[C@@H]12)C1(O)CCOCC1 [Example 96, 4-[(3aR,9bR)-9b-(benzenesulfonyl)-7-[(2,6-dichlorophenyl)methoxy]-1H,2H,3H,3aH,4H,5H,9bH-benzo[e]indole-3-carbonyl]oxan-4-ol]
6.07	CN1CCCC(C(=O)N2CC[C@@]3(S(=O)(=O)c4ccccc4)c4ccc(OCc5c(Cl)cccc5Cl)cc4CC[C@@H]23)C1 (stereo partly drawn) [Example 97, 3-[(3aR,9bR)-9b-(benzenesulfonyl)-7-[(2,6-dichlorophenyl)methoxy]-1H,2H,3H,3aH,4H,5H,9bH-benzo[e]indole-3-carbonyl]-1-methylpiperidine]
7.72	CS(=O)(=O)N1CC(C(=O)N2CC[C@@]3(S(=O)(=O)c4ccccc4)c4ccc(OCc5c(Cl)cccc5Cl)cc4CC[C@@H]23)C1 [Example 98, 3-[(3aR,9bR)-9b-(benzenesulfonyl)-7-[(2,6-dichlorophenyl)methoxy]-1H,2H,3H,3aH,4H,5H,9bH-benzo[e]indole-3-carbonyl]-1-methanesulfonylazetidine]
6.13	CS(=O)(=O)n1cc(C(=O)N2CC[C@@]3(S(=O)(=O)c4ccccc4)c4ccc(OCc5c(Cl)cccc5Cl)cc4CC[C@@H]23)cn1 [Example 99, 4-[(3aR,9bR)-9b-(benzenesulfonyl)-7-[(2,6-dichlorophenyl)methoxy]-1H,2H,3H,3aH,4H,5H,9bH-benzo[e]indole-3-carbonyl]-1-methanesulfonyl-1H-pyrazole]
6.50	Cn1cc(C(=O)N2CC[C@@]3(S(=O)(=O)c4ccccc4)c4ccc(OCc5c(Cl)cccc5Cl)cc4CC[C@@H]23)cn1 [Example 100, 4-[(3aR,9bR)-9b-(benzenesulfonyl)-7-[(2,6-dichlorophenyl)methoxy]-1H,2H,3H,3aH,4H,5H,9bH-benzo[e]indole-3-carbonyl]-1-methyl-1H-pyrazole]
6.21	CC(C)S(=O)(=O)CC(=O)N1CC[C@@]2(S(=O)(=O)c3ccccc3)c3ccc(OCc4c(Cl)cccc4Cl)cc3CC[C@@H]12 [Example 102, 1-[(3aR,9bR)-9b-(benzenesulfonyl)-7-[(2,6-dichlorophenyl)methoxy]-1H,2H,3H,3aH,4H,5H,9bH-benzo[e]indol-3-yl]-2-(propane-2-sulfonyl)ethan-1-one]
